Values of other authors, collected in US20230285483A1, “TINCTURE CONTAINING CANNABINOIDS, METHOD OF USING, AND METHOD OF MAKING THE SAME” (priority 2022, published 2023).

Tests used:
[1] = tested on: coronavirus; settings: study by researchers at Oregon State University
[2] = molecular target: spike proteins found on the virus (Severe acute respiratory syndrome coronavirus 2, UniProt P0DTC2); settings: study by researchers at Oregon State University

For `C=C(C)[C@@H]1CCC(C)=C[C@H]1c1c(O)cc(CCCCC)c(C(=O)O)c1O` [CBDa, cannabidiolic acid], the “blocking of a step the pathogen uses to infect people” value [1] is given as “blocked a step the pathogen uses to infect people” and the “binding to spike proteins found on the virus” value [2] is given as “bind to spike proteins”.

In the case of `CCCCCc1cc(O)c(C/C=C(\C)CCC=C(C)C)c(O)c1C(=O)O` [CBGa, cannabigerolic acid], the “blocking of a step the pathogen uses to infect people” value [1] is given as “blocked a step the pathogen uses to infect people” and the “binding to spike proteins found on the virus” value [2] is given as “bind to spike proteins”.
